# How the values were obtained:
# Format in all cases: in vivo
# [1] = system: cotton aphids (Aphis gossypii); test: Test Example 2: spray on cucumber infested with cotton aphids; conditions: topical, 144 h, 500 ppm active ingredient, 20 ml/cup spray on cucumber, about 30 aphids, counted six days after spraying, read-out: controlling value
# Procedure: Then, it will be shown by Test Examples that the present compound is effective in controlling harmful arthropods. In the Test Example, controlling values were calculated by the following equation: Controlling value(%)={1−(Cb×Tai)/(Cai×Tb)}×100 wherein Cb: the number of worms in a non-treated section before treatment Cai: the number of worms in a non-treated section on observation Tb: the number of worms in a treated-section before treatment Tai: the number of worms in a treated-section on observation. Preparations of the test compounds obtained in Formulation Example 5 were diluted with water so that the active ingredient concentration became 500 ppm to prepare test spray solutions. At the same time, cucumber was planted in a polyethylene cup, and was grown until the first true leaf was developed. About 30 cotton aphids were put on the cucumber. One day after, the test spray solution as described above was sprayed in an amount of 20 ml/cup on the cucumber. Six days after spraying, the number of cotton aphids (Aphis gossypii) was counted, and a controlling value was calculated by the above equation.
# [2] = system: diamondback moths (Plutella xylostella); test: Test Example 1: spray on cabbage, third-instar larvae of diamondback moths; conditions: Plutella xylostella, 120 h; 500 ppm active ingredient, 20 ml/cup spray on cabbage, 10 third-instar larvae, counted after 5 days; read-out: controlling value
# Procedure: Then, it will be shown by Test Examples that the present compound is effective in controlling harmful arthropods. In the Test Example, controlling values were calculated by the following equation: Controlling value(%)={1−(Cb×Tai)/(Cai×Tb)}×100 wherein Cb: the number of worms in a non-treated section before treatment Cai: the number of worms in a non-treated section on observation Tb: the number of worms in a treated-section before treatment Tai: the number of worms in a treated-section on observation. Preparations of the test compounds obtained in Formulation Example 5 were diluted with water so that the active ingredient concentration became 500 ppm, to prepare test spray solutions. At the same time, cabbage was planted in a polyethylene cup, and grown until the third true leaf or the fourth true leaf was developed. The test spray solution as described above was sprayed in an amount of 20 ml/cup on the cabbage. After the spray solution on the cabbage was dried, 10 third-instar larvae of diamondback moths (Plutella xylostella) were put on the cabbage. After 5 days, the number of diamondback moths was counted, and the controlling value was calculated by the above equation. Furthermore, preparations of the test compound (7) and a comparative compound of the formula [drawing 523] obtained in a formulation according to Formulation Example 5 were diluted with water so that the active ingredient concentration became 0.2 ppm, to prepare test spray solution. At the same time, cabbage was planted in a polyethylene cup, and grown until the third true leaf or the fourth true leaf was developed. The test spray solution as described above was sprayed in an amount of 20 ml/cup on the cabbage. After the spray solution on the cabbage was dried, 10 third-instar larvae of diamondback moths (Plutella xylostella) were put on the cabbage. After 5 days, the number of diamondback moths was counted, and the controlling value was calculated by the above equation.
# [3] = system: Spodoptera litura; test: Test Example 3: spray on cabbage, fourth-instar larvae of Spodoptera litura; conditions: 120 h, 500 ppm active ingredient, 20 ml/cup spray on cabbage, 10 fourth-instar larvae, counted after 5 days, read-out: controlling value
# Procedure: Then, it will be shown by Test Examples that the present compound is effective in controlling harmful arthropods. In the Test Example, controlling values were calculated by the following equation: Controlling value(%)={1−(Cb×Tai)/(Cai×Tb)}×100 wherein Cb: the number of worms in a non-treated section before treatment Cai: the number of worms in a non-treated section on observation Tb: the number of worms in a treated-section before treatment Tai: the number of worms in a treated-section on observation. Preparations of the test compounds obtained in Formulation Example 5 were diluted with water so that the active ingredient concentration became 500 ppm to prepare test spray solutions. At the same time, cabbage was planted in a polyethylene cup, and grown until the third true leaf or the fourth true leaf was developed. The test spray solution as described above was sprayed in an amount of 20 ml/cup on the cabbage. After the spray solution sprayed on the cabbage was dried, 10 fourth-instar larvae of Spodoptera litura were put on the cabbage. After 5 days, the number of Spodoptera litura surviving on the cabbage leaves was counted, and a controlling value was calculated by the above equation.
# [4] = system: Adoxophyes orana fasciata; test: Test Example 4: spray on apple seedling, first-instar larvae of Adoxophyes orana fasciata; conditions: 168 h, 500 ppm active ingredient, 20 ml spray on apple seedling, about 30 first-instar larvae, counted seven days after spraying, read-out: controlling value
# Procedure: Then, it will be shown by Test Examples that the present compound is effective in controlling harmful arthropods. In the Test Example, controlling values were calculated by the following equation: Controlling value(%)={1−(Cb×Tai)/(Cai×Tb)}×100 wherein Cb: the number of worms in a non-treated section before treatment Cai: the number of worms in a non-treated section on observation Tb: the number of worms in a treated-section before treatment Tai: the number of worms in a treated-section on observation. Preparations of the test compounds obtained in Formulation Example 5 were diluted with water so that the active ingredient concentration became 500 ppm to prepare test spray solutions. At the same time, 20 ml of the test spray solution as described above was sprayed to an apple seedling (28 day-old seeding, tree height: about 15 cm) planted in a plastic cup. The apple seedling was air-dried to such an extent that the spray solution sprayed on the apple seedling was dried. About 30 first-instar larvae of Adoxophyes orana fasciata were released. Seven days after spraying, the number of worms surviving on the apple seedling was counted, and a controlling value was calculated by the above equation.
smiles,measurement,setting,value
"COC(=O)N(C)NC(=O)c1nc(Cl)cc(C)c1NC(=O)c1cc(Br)nn1-c1ncccc1Cl [Compound 8, N′-(3-{[5-bromo-2-(3-chloro-pyridin-2-yl)-2H-pyrazole-3-carbonyl]-amino}-6-chloro-4-methyl-pyridine-2-carbonyl)-N-methyl-hydrazinecarboxylic acid methyl ester]",pest or weed control at 500 ppm,[1],≥ 90%
same,pest or weed control at 500 ppm,[2],≥ 90%
same,pest or weed control at 500 ppm,[3],≥ 80%
same,pest or weed control at 500 ppm,[4],≥ 90%
"COC(=O)NNC(=O)c1cc(Cl)nc(C)c1NC(=O)c1cc(Br)nn1-c1ncccc1Cl [Compound 3, N′-(3-{[5-bromo-2-(3-chloro-pyridin-2-yl)-2H-pyrazole-3-carbonyl]-amino}-6-chloro-2-methyl-pyridine-4-carbonyl)-hydrazinecarboxylic acid methyl ester]",pest or weed control at 500 ppm,[1],≥ 90%
same,pest or weed control at 500 ppm,[2],≥ 90%
same,pest or weed control at 500 ppm,[3],≥ 80%
same,pest or weed control at 500 ppm,[4],≥ 90%
